Data taken from the supplement of paper PMC10307832.

Experiments:
Test in all cases: relative viability (nuclei count vs DMSO), 5 days (fraction); higher = more cells survive
[1] = compound: C1CNCCC1C2=CC(=NN2)C3=CC=NC=C3 + COc1cc2c(Oc3ccc(NC(=O)C4(C(=O)Nc5ccc(F)cc5)CC4)cc3F)ccnc2cc1OCCCN1CCOCC1 [Foretinib] (partner 0.25 µM)
Method in brief: (§1)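 Relative viability divides the nuclei count in treated wells by that in vehicle wells. Lung cancer cell lines were seeded in 1536-well plates, dosed by pin tool the next day, and fixed and stained after 5 days in one step with final 0.05% Triton X-100, 1% formaldehyde and 1 ug/ml Hoechst. Dosing was a single drug or a fixed anchor-drug dose plus five library-drug doses (not always all listed) in √10 steps, and values are medians of duplicate plates imaged at 4×.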

Tanzisertib + Foretinib = compound: O[C@H]1CC[C@H](Nc2ncc3nc(Nc4c(F)cc(F)cc4F)n([C@H]4CCOC4)c3n2)CC1 [Tanzisertib] + COc1cc2c(Oc3ccc(NC(=O)C4(C(=O)Nc5ccc(F)cc5)CC4)cc3F)ccnc2cc1OCCCN1CCOCC1 [Foretinib] (partner 0.25 µM)
Method in brief: as §1

[2] = compound: C1CNCCC1C2=CC(=NN2)C3=CC=NC=C3 + CC(=O)Nc1cccc(-n2c(=O)n(C3CC3)c(=O)c3c(Nc4ccc(I)cc4F)n(C)c(=O)c(C)c32)c1 [Trametinib] (partner 0.02 µM)
Method in brief: as §1

[3] = compound: C1CNCCC1C2=CC(=NN2)C3=CC=NC=C3 + Cc1cc(Nc2cc(N3CCN(C)CC3)nc(Sc3ccc(NC(=O)C4CC4)cc3)n2)n[nH]1 [Tozasertib] (partner 0.1 µM)
Method in brief: as §1

Cell Line | relative viability ([1]; first compound 0.08 µM) | relative viability ([1]; first compound 0.8 µM) | relative viability ([1]; first compound 2.53 µM) | relative viability ([1]; first compound 8 µM) | relative viability (Tanzisertib + Foretinib; first compound 0.08 µM) | relative viability (Tanzisertib + Foretinib; first compound 0.253 µM) | relative viability (Tanzisertib + Foretinib; first compound 0.8 µM) | relative viability (Tanzisertib + Foretinib; first compound 2.53 µM) | relative viability (Tanzisertib + Foretinib; first compound 8 µM) | relative viability ([2]; first compound 0.08 µM) | relative viability ([2]; first compound 0.8 µM) | relative viability ([2]; first compound 2.53 µM) | relative viability ([2]; first compound 8 µM) | relative viability ([3]; first compound 0.08 µM) | relative viability ([3]; first compound 0.8 µM) | relative viability ([3]; first compound 2.53 µM) | relative viability ([3]; first compound 8 µM)
SK-MES-1 | 0.85 | 0.855 | 1.05 | 1 | 0.971 | 0.917 | 0.889 | 0.992 | 0.7 | 0.553 | 0.549 | 0.542 | 0.578 | 0.783 | 1 | 0.981 | 0.834
NCI-H2405 | 1.05 | 1.04 | 1.11 | 1.05 | 1.1 | 1.08 | 1.07 | 1.17 | 1.03 | 0.588 | 0.631 | 0.638 | 0.615 | 0.749 | 0.751 | 0.692 | 0.525
NCI-H2023 | 0.789 | 0.803 | 1.16 | 1.11 | 0.853 | 0.874 | 0.936 | 0.901 | 0.646 | 0.418 | 0.627 | 0.645 | 0.494 | 0.351 | 0.3 | 0.482 | 0.256
NCI-H838 | 1.03 | 0.996 | 1.08 | 0.996 | 1.1 | 1.01 | 1.11 | 1.02 | 0.937 | 0.518 | 0.494 | 0.589 | 0.512 | 0.314 | 0.292 | 0.28 | 0.284
NCI-H1299 | 1.1 | 1.08 | 1.07 | 1.08 | 1.08 | 1.1 | 1.09 | 1.15 | 1.23 | – | – | – | – | – | – | – | –
NCI-H1563 | 0.727 | 0.94 | 0.943 | 0.973 | 0.983 | 0.854 | 0.896 | 0.96 | 0.72 | – | – | – | – | – | – | – | –
NCI-H661 | 1.1 | 1.05 | 1.01 | 1.02 | 1.07 | 0.999 | 1 | 1.04 | 0.995 | 0.568 | 0.561 | 0.586 | 0.596 | 0.38 | 0.367 | 0.356 | 0.345
Calu-6 | 0.951 | 0.912 | 0.781 | 0.914 | 0.955 | 0.951 | 0.799 | 0.841 | 0.789 | – | – | – | – | – | – | – | –
NCI-H1703 | 0.389 | 0.355 | 0.349 | 0.348 | 0.406 | 0.371 | 0.359 | 0.262 | 0.261 | – | – | – | – | – | – | – | –
EBC-1 | 0.116 | 0.111 | 0.0919 | 0.135 | 0.102 | 0.093 | 0.104 | 0.117 | 0.109 | – | – | – | – | – | – | – | –
HCC-44 | – | – | – | – | – | – | – | – | – | 1.09 | 1.06 | 1.04 | 1.05 | 0.873 | 1.32 | 1.1 | 0.897
NCI-H1648 | – | – | – | – | – | – | – | – | – | 0.464 | 0.483 | – | 0.516 | 0.425 | 0.475 | 0.461 | 0.508
NCI-H522 | – | – | – | – | – | – | – | – | – | 0.764 | 0.716 | 0.918 | 0.744 | 0.519 | 0.518 | 0.587 | 0.562
A549 | 0.932 | 0.979 | 1.03 | 1.01 | 0.98 | 0.951 | 0.97 | 0.87 | 0.839 | – | – | – | – | – | – | – | –
